What was measured:
[1] = test system: Islet-1; assay: Islet-1 expression in Tg[Isl1:GFP] zebrafish embryos; assay type: in vivo; conditions: 10 μM
[2] = test system: abca1; assay: abca1 expression in zebrafish embryos; assay type: in vivo; conditions: 10 μM
Description: Quantitative PCR, Total RNA was extracted from SN4741. cells and zebrafish treated with the compounds of interest using the RNeasy Mini Kit (Qiagen), 1 μg was treated with RQ1 RNase-free DNase (Promega) and reverse transcribed using SuperScript II Reverse Transcriptase (invitrogen) and random primers (invitrogen) (RT+reaction). Parallel reactions without reverse transcriptase enzyme were done as a control (RT−reaction), and Sybergreen real-time quantitative PCR assays were performed. Expression levels were obtained by normalization with the Value of the housekeeping gene encoding actin obtained for every sample in parallel assays.
Zebrafish Strain and Maintenance Zebrafish were raised on a 14/10 h day/night cycle and were kept at 28.5 ° C. Islet-1:GFP transgenic embryos were obtained via natural spawning and staged in hours or days post fertilization (hpf and dpt) according to Kimmel et al). Embryos older than 24 hpf were treated with 0.03% phenylthiourea (PTU) to inhibit pigmentation. […] Immunocytochemistry was performed using an anti-GFP antibody and fluorescence was viewed and photographed using a Zeiss Axioplan compound microscope and a Zeiss Axiocam digital camera.

Question: How did the “Islet-1 mRNA and protein level (qPCR, western blot)” value [1] turn out when `CC(CCC[C@@H](C)[C@H]1CC[C@H]2[C@@H]3[C@H](O)C=C4C[C@@H](O)CC[C@]4(C)[C@H]3CC[C@]12C)C(=O)O` (stereo partly drawn) [3β,7α-diHCA, 3β,7α-dihydroxycholest-5-en-26-oic acid] was run?
Answer: accompanied by an increase in the level of Islet-1 mRNA and protein

Question: What about the Islet-GFP expression ([1]; embryos 48 hpf) of the same compound?
Answer: increased Islet-GFP expression

Question: What about the “Number of Islet1+ cells in cranial nerves (III, IV, V, VII, X)” value ([1]; embryos 48 hpf) of the same compound?
Answer: had no significant effect on the number of Islet1+cells

Question: What about the “Islet-GFP levels after lxr morpholino injection” value ([1]; lxr MO vs control scrambled MO) of the same compound?
Answer: lxr MO injections abolished the in vivo increase in Islet-GFP levels

Question: What about the abca1 expression [2] of the same compound?
Answer: enhanced expression of abca1

— US20190201419A1, “COMPOUND AND METHOD FOR THE TREATMENT AND DIAGNOSIS OF NEURODEGENERATIVE CONDITIONS” (Swansea University, priority 2013, published 2019)
